{"source": "patent US20110041725A1", "about": "“ANTICOAGULANTS AS ANTIFOULING AGENTS” (priority 2007, published 2011)", "key": {"[1]": {"system": "barnacle cement polymerization", "assay": "Barnacle cement polymerization in presence of anticoagulants, protein profile by SDS-PAGE", "assay_type": "biochemical", "settings": "for inhibition of polymerization of barnacle cement (number and intensity of proteins): 2 μl anticoagulant added to 1 μl unpolymerized cement of thick, gummy phenotype barnacle, 2 minutes, versus distilled water", "protocol": "(§1) FIG. 6. Protein profile for barnacle cement polymerized in the presence of distilled water (control) or one of 5 anticoagulants heparin, warfarin, trypsin inhibitor, EGTA or EDTA. Each peak represents an individual protein. For each treatment, 2 μl of either distilled water or anticoagulant was added to 1 μl unpolymerized cement taken from a thick, gummy phenotype barnacle. Polymerization was allowed to proceed for 2 minutes. Samples were analyzed with SDS-PAGE using a 4-20% acrylamide gel. The gel was stained with Coomassie Blue and analyzed using Scion Image.\nas §1, with “Each” for “FIG. 6. Protein profile for barnacle cement polymerized in the presence of distilled water (control) or one of 5 anticoagulants heparin, warfarin, trypsin inhibitor, EGTA or EDTA. Each”"}, "[2]": {"system": "serine proteases active in barnacle cement polymerization", "assay": "SDS-PAGE protein signature of unpolymerized barnacle glue with and without heparin", "assay_type": "biochemical", "settings": "reducing SDS-PAGE, 4-20% acrylamide gel, Coomassie Blue", "protocol": "Techniques were developed and performed to harvest unpolymerized barnacle cement in microliter quantities. This enabled analysis of the proteins in barnacle cement using SDS-PAGE, which separates proteins based on size. SDS-PAGE provides a protein signature. SDS-PAGE was conducted under reducing conditions on a 4-20% acrylamide gradient gel in the presence and absence of heparin to determine any associated changes in protein signature (See FIG. 10). […] A precast, 4-20% acrylamide gel was used and stained with Coomassie Blue. […] The number of protein bands in the 85-115 kDa range is increased and of particular note, the 24 kDa protein and all the smaller peptides have disappeared in the presence of heparin."}, "barnacles": {"system": "barnacles", "assay": "Barnacle reattachment assay (removal force)", "assay_type": "in vivo", "protocol": "A barnacle reattachment assay was performed in the presence and absence of heparin. The barnacle reattachment assay (Rittschof et al., under review) allows for rapid assessment of barnacle adhesive strength. In this assay barnacles are grown on non-toxic silicone substrates. Barnacles are removed from the silicone surface using a hand-held mechanical force gauge. Removed barnacles are then placed on another surface to which they are allowed to reattach for one week. As cement production is continuous throughout a barnacle's life, reattachment is possible and strength of adhesion after one week is nearly identical to initial strength of adhesion (when removed from, and reattached to the same silicone substrate). This assay was utilized to determine if a coating on a surface decreases strength of adhesion by removing a barnacle from silicone and allowing it to reattach to test and control surfaces. Reattachment trials for heparin were conducted by removing a barnacle from a silicone panel and reattaching it to clean glass panels or heparin coated glass panels. […] The reattachment removal force for the barnacles is represented by the gray bars. Barnacles were reattached to glass panels coated with 0 (control), 0.1, 1.0 or 10.0 mg ml^−1 heparin for 7 days. The removal force decreased for all barnacles on heparin treatments. […] This pattern was shown on both heparin coated silicone and heparin coated glass. […] The same group of barnacles was successively reattached to the same treatment for 1, 2, 3 and 4 days (in that order); n=10 barnacles for dH2O and sucrose, n=10 for heparin 1 day, and n=9 for heparin 2, 3 and 4 days. […] Statistical comparisons were not conducted on 2, 3, and 4 day trials as there is a potential for the results to be influenced by previous reattachment trials."}}, "note": "Entries after “also recorded” stand apart in the source; their conditions may differ.", "data": [{"compound": "O=C(O)CN(CCOCCOCCN(CC(=O)O)CC(=O)O)CC(=O)O", "note": "[EGTA]", "values": [{"measurement": "inhibition of polymerization of barnacle cement (number and intensity of proteins)", "setting": "[1]", "value": "effectively inhibit the polymerization of barnacle cement; also recorded: inhibited"}]}, {"compound": "heparin", "values": [{"measurement": "bands smaller than 31 kDa (serine proteases and their peptide products)", "setting": "[2]", "value": "do not appear when heparin is added"}, {"measurement": "protein signature of barnacle glue", "setting": "[2]", "value": "significantly different"}, {"measurement": "inhibitory effect on cement polymerization compared with the other anticoagulant compounds tested", "setting": "[1]", "value": "most extensive and consistent inhibitory effect"}, {"measurement": "inhibition of polymerization of barnacle cement (number and intensity of proteins)", "setting": "[1]", "value": "effectively inhibit the polymerization of barnacle cement"}, {"measurement": "mean removal force versus sucrose", "setting": "barnacles; 1 mg ml^-1 coated T2 silicone, 1 day reattachment, p<0.05", "value": "significant difference from the sucrose results"}, {"measurement": "reattachment removal force versus initial removal force", "setting": "barnacles; 10 mg ml^-1 heparin coated glass, 7 days, paired samples t-test p=0.017", "value": "highly significant difference from initial removal force"}, {"measurement": "reattachment removal force", "setting": "barnacles; glass panels coated with 0.1, 1.0 or 10.0 mg ml^-1 heparin, reattached 7 days", "value": "decreased"}, {"measurement": "force required for removal as concentration increases", "setting": "barnacles; heparin 0.1 to 10 mg ml^-1, heparin coated silicone and heparin coated glass", "value": "stepwise decrease"}, {"measurement": "removal force over time reattached", "setting": "barnacles; heparin coated surfaces, reattached 1, 2, 3 and 4 days", "value": "no increase in removal force with increasing time reattached"}]}, {"compound": "O=C(O)CN(CCN(CC(=O)O)CC(=O)O)CC(=O)O", "note": "[EDTA]", "values": [{"measurement": "inhibition of polymerization of barnacle cement (number and intensity of proteins)", "setting": "[1]", "value": "effectively inhibit the polymerization of barnacle cement; also recorded: inhibited"}]}, {"compound": "CC(=O)CC(c1ccccc1)c1c(O)c2ccccc2oc1=O", "note": "(stereo not drawn) [warfarin]", "values": [{"measurement": "inhibition of polymerization of barnacle cement (number and intensity of proteins)", "setting": "[1]", "value": "effectively inhibit the polymerization of barnacle cement"}]}]}
